Read-outs that look alike come from different tables or passages of the source. Square brackets hold non-standard residues; d marks the D form. Ends that are not written are not given here. Peptide text beside a SMILES is read from it. Chg = N[C@H](C(=O)O)C1CCCCC1; Pen = CC(C)(S)[C@H](N)C(=O)O; Phg = N[C@H](C(=O)O)c1ccccc1; Tle = CC(C)(C)[C@H](N)C(=O)O; Nva = CCC[C@H](N)C(=O)O
What was measured:
VBC = target: T1, VBC (Homo sapiens, UniProt P40337+Q15369+Q15370); test: Biolayer interferometry (BLI) binding of peptides to immobilised VBC
T1 construct: made in house; host or cells: E. coli BL21(DE3)
Method: Biolayer interferometry: BLI experiments were performed in an Octet RED384 (FòrteBio). Biotinylated VBC (25 μg mL^−1) was immobilized on Super Streptavidin‐coated biosensor (FòrteBio). The experiments were conducted at 25 °C, in 20 mM HEPES pH 7.6, 100 mM NaCl, 1 mM DTT and 0.02 % (v/v) Tween‐20 buffer. The response of the reference tips was subtracted from the signal to account for unspecific binding. The data points were fitted using a 1:1 model. […]
peptides. Biotinylated VBC was immobilised on the tips and the peptides were tested in a concentration range from 27 µM to 7 mM. The different colours represent the different concentrations and corresponding responses. The assay was performed […]
Figure S2 – Biolayer interferomery experiments with the alanine scan peptides.
Biotinylated VBC was immobilised on the tips and the peptides were tested in a concentration range from 27 µM to 7 mM. The different colours represent the different concentrations and corresponding responses. The assay was performed in […]
leucine replacement versus VBC tested on a concentration-dependent assay. […]

[1] = target: T2, native interaction between VBC and Cul2 (Homo sapiens, UniProt P40337+Q15369+Q15370); test: AlphaLISA competition assay to displace Cul2 from VBC; format: binding; conditions: V6×HisBC 500 nM, biotinylated Rbx1-Cul2 150 nM
T2 construct: made in house; host or cells: E. coli BL21(DE3) for VBC
Method: AlphaLISA: Anti‐His6 acceptor beads and Streptavidin donor beads (PerkinElmer) were used. […] The final volume of each well was 20 μL. The plate was then read in a PHERAstar FS (BMG LABTECH). Each of the competitors was titrated in quadruplicate. The fitting and IC50 determination were performed in GraphPad Prism 7 (GraphPad Software, La Jolla, CA, USA).

[2] = Precipitation of peptides in the conditions of the BLI experiment; format: physicochemical; conditions: 20 mM HEPES pH 7.6, 100 mM NaCl, 1 mM DTT, 0.02 % Tween-20, 25 °C; visual
Method: Based on the structural analysis of the Cul2‐VBC interface, we first aimed to recapitulate the interaction using N‐terminal Cul2 peptides varying from three to eleven residues. […] Thus, the next step was to enhance the binding affinity of the peptides toward VBC.
Biolayer interferometry: BLI experiments were performed in an Octet RED384 (FòrteBio). Biotinylated VBC (25 μg mL^−1) was immobilized on Super Streptavidin‐coated biosensor (FòrteBio). The experiments were conducted at 25 °C, in 20 mM HEPES pH 7.6, 100 mM NaCl, 1 mM DTT and 0.02 % (v/v) Tween‐20 buffer. The response of the reference tips was subtracted from the signal to account for unspecific binding. The data points were fitted using a 1:1 model.

[3] = 8-mer peptide variants replacing Leu3, BLI, biotinylated VBC on Super Streptavidin biosensor, peptides 27 µM to 7 mM, 20 mM HEPES pH 7.6, 100 mM NaCl, 1 mM DTT, 0.02% Tween-20, 25 °C, 1:1 model, read-out: K d

Molecule: MSFKPRVV-NH2 [C]
- Kd (VBC; [3]): 3100 ± 200 µM

Molecule: CSCC[C@H](N)C(=O)N[C@@H](CO)C(=O)N[C@H](C(=O)N[C@@H](CCCCN)C(=O)N1CCC[C@H]1C(=O)N[C@@H](CCCNC(=N)N)C(=O)N[C@H](C(=O)N[C@H](C(N)=O)C(C)C)C(C)C)c1ccccc1 [H] (H-MS[Phg]KPRVV-NH2)
- Kd (VBC; [3]): 2100 ± 600 µM

Molecule: MSYKPRVV-NH2 [D]
- Kd (VBC; [3]): 7400 ± 400 µM

Molecule: CSCC[C@H](N)C(=O)N[C@@H](CO)C(=O)N[C@H](C(=O)N[C@@H](CCCCN)C(=O)N1CCC[C@H]1C(=O)N[C@@H](CCCNC(=N)N)C(=O)N[C@H](C(=O)N[C@H](C(N)=O)C(C)C)C(C)C)C(C)(C)C [G] (H-MS[Tle]KPRVV-NH2)
- Kd (VBC; [3]): 900 ± 100 µM

Molecule: CSCC[C@H](N)C(=O)N[C@@H](CO)C(=O)N[C@H](C(=O)N[C@@H](CCCCN)C(=O)N1CCC[C@H]1C(=O)N[C@@H](CCCNC(=N)N)C(=O)N[C@H](C(=O)N[C@H](C(N)=O)C(C)C)C(C)C)C1CCCCC1 [I] (H-MS[Chg]KPRVV-NH2)
- Kd (VBC; [3]): 8900 ± 700 µM

Molecule: CCC[C@H](NC(=O)[C@H](CO)NC(=O)[C@@H](N)CCSC)C(=O)N[C@@H](CCCCN)C(=O)N1CCC[C@H]1C(=O)N[C@@H](CCCNC(=N)N)C(=O)N[C@H](C(=O)N[C@H](C(N)=O)C(C)C)C(C)C [F] (H-MS[Nva]KPRVV-NH2)
- Kd (VBC; [3]): 1900 ± 200 µM

Molecule: CSCC[C@H](N)C(=O)N[C@@H](CO)C(=O)N[C@H](C(=O)N[C@@H](CCCCN)C(=O)N1CCC[C@H]1C(=O)N[C@@H](CCCNC(=N)N)C(=O)N[C@H](C(=O)N[C@H](C(N)=O)C(C)C)C(C)C)C(C)(C)S [Peptide J] (H-MS[Pen]KPRVV-NH2)
- Displacement of Cul2 from VBC in AlphaLISA (in words) [1]: displace Cul2

Molecule: MSLKPRVVDFD [11‐mer]
- Precipitation in the conditions of the BLI experiment (in words) [2]: formed a white precipitate

Molecule: MSLKPRAV-NH2
- Kd (VBC): 2100 ± 600 µM

Molecule: MSLKPRVVD [9‐mer]
- Precipitation in the conditions of the BLI experiment (in words) [2]: formed a white precipitate

From PMC5639367, “Structure‐Guided Design of Peptides as Tools to Probe the Protein–Protein Interaction between Cullin‐2 and Elongin BC Substrate Adaptor in Cullin RING E3 Ubiquitin Ligases” (Chemmedchem, 2017)
